Patent US11046690B2, “Pyridazinones and methods of use thereof” (Goldfinch Bio, Inc., priority 2018, dated 2021)

Molecular target: T1, TRPC4 (Homo sapiens, UniProt Q9UBN4)
T1 construct: expressed in transfected cells
T1 sequence (Q9UBN4 1-982 isoform Q9UBN4-5): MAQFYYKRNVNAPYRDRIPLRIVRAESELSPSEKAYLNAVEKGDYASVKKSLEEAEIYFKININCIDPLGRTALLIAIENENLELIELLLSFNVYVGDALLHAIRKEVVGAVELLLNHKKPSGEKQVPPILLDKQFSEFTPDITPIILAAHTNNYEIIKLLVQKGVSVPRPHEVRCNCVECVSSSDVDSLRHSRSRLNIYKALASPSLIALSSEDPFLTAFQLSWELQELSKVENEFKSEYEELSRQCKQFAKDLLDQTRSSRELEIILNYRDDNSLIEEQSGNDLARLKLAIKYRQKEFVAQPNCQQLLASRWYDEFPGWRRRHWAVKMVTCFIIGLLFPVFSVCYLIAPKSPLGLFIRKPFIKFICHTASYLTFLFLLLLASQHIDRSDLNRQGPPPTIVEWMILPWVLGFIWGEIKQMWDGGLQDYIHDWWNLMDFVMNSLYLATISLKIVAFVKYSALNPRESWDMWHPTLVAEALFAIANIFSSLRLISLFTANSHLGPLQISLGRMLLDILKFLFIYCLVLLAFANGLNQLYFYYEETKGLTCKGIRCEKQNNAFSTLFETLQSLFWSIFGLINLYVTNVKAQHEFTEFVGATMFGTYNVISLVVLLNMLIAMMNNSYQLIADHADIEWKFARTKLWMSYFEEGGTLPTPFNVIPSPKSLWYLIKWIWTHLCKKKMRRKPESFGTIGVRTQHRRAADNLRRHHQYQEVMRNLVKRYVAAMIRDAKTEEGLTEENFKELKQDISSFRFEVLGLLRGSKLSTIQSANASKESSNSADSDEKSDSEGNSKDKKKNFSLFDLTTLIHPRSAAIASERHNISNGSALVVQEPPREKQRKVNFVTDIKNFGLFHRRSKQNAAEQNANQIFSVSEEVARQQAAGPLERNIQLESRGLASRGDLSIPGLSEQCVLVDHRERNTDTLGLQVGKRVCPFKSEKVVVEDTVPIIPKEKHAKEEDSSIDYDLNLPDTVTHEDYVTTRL
Assay: TRPC4 activity assay (FLIPR calcium fluorescence, Englerin A stimulation)
Assay type: cell-based
Conditions: HEK-TREx hTRPC4 cells, 100 nM Englerin A stimulation; read-out: TRPC4 (IC50 class)
Protocol: ICLN-1694 cells (HEK-TREx hTRPC4) expressing TRPC4 were generated as follows. Commercially available HekTrex-293 cells were seeded at 0.7×10^6 cells/well in a 1×6-well plate 24 hrs prior to transfection using 2 mL cell growth media containing no antibiotics (1× DMEM/high glucose (Hyclone #SH30022.02); 10%0/fetal bovine serum (Sigma) 2 mM sodium pyruvate, 10 mM HEPES). […] On day 2, 2 μg of plasmid DNA plus 6 μl of Xtreme-GENE HP reagent in Optimem (200 μl total volume) was prepared and incubated for 15 min at room temperature. This plasmid solution was then gently overlayed dropwise onto each well and the plate was gently swirled to mix complex with the media for approximately 30 seconds. Transfected cells were incubated at 37° C. in a 10% C02 incubator for 24 hrs. The transfected cells were harvested and transferred into 2×150 mm dishes containing cell growth media with no antibiotics at 37° C.
The next day selection was initiated to generate a stable pool by adding cell growth media containing 150 μg/mL Hygromycin and 5 μg/mL Blasticidin and cells were allowed to grow. Media with the selection agent was changed every 1-2 days as needed to remove dead cells. After 7 days, the hygromycin concentration was reduced to 75 μg/mL and cells growth was allowed to continue.
Single clones were selected as follows. The stable pool was diluted to 10 cells/mL and seeded (100 μl/well) into 24×96 well plates (˜1 cell/well) and allowed to grow for 7 days in cell growth media. Fresh media (100 μl) was added and the cells allowed to grow for another 1-2 weeks and then stored frozen or used immediately.
10-point dose response curves were generated using the Echo-550 acoustic dispenser. Compound source plates were made by serially diluting compound stocks to create 10 mM, 1 mM, and 0.1 mM solutions in DMSO into Echo-certified LDV plates. The Echo then serially spotted 100% DMSO stock solutions into source dose response plates to generate a 4-fold dilution scheme. 100% DMSO was added to the spotted dose response plates to bring the final volume to 5 μl. […] of the dose response stock plate was then spotted into pre-incubation and stimulation assay plates. 50 μl of pre-incubation buffer and 100 μl of stimulation buffer was then added to the plates resulting in a final assay test concentration range of 30 μM to 0.0001 μM with a final DMSO concentration of 0.3%.
ICLN-1694 cells (HEK-TREx hTRPC4) were plated onto 384 well, black pdl-coated microplates and maintained in cell growth media supplemented with 1 μg/mL tetracycline the day prior to use for experiments. TRPC4 expression was induced by the application of 1 μg/mL tetracycline at the time of plating. […] Cells were incubated at room temperature, protected from light, for 60-90 minutes. After the incubation period, the dye was removed and replaced with 10 μl of EBSS. Cell, pre-incubation and stimulation plates were loaded onto the FLIPR-II and the assay was initiated. The FLIPR measured a 10 second baseline and then added 10 μl of 2X compounds (or controls). Changes in fluorescence were monitored for an additional 5 minutes. After a 5 minute pre-incubation, 20 μl of 2X Englerin A (with 1X compound or controls) was added to the cell plate. The final Englerin A stimulation concentration in the assay was 100 nM. After the Englerin A addition, changes in fluorescence were monitored for an additional 5 minutes.
Compound modulation of TRPC4 calcium response was determined as follows. After the Englerin A, fluorescence was monitored for a 5-minute period. The maximum relative fluorescence response (minus the control response of 1 μM of an internal control compound known to maximally block TRPC4 calcium response, the “REF INHIB” in the formula below) was captured and exported from the FLIPR.
Compound effect is calculated as % inhibition using the following formula:
[formula] wherein “RFU” is the relative fluorescent units.

| IC50 | SMILES |
| --- | --- |
| 50 to 500 nM | CC1Cc2c(ncnc2Oc2ccc(F)cc2Cl)CN1c1cn[nH]c(=O)c1Cl (single isomer, unassigned) [Compound 117] |
| < 50 nM | O=c1[nH]ncc(N2CCc3c(ncnc3Oc3ccc(F)cc3Cl)C2)c1Cl [Compound 104] |
